From article PMC8507260, “A2E-induced inflammation and angiogenesis in RPE cells in vitro are modulated by PPAR-α, -β/δ, -γ, and RXR antagonists and by norbixin” (Aging (Albany NY), 2021)

Columns and labels:
[1] = system: PPAR; assay: Endogenous PPAR transactivation, luciferase reporter in primary porcine RPE cells; assay type: cell-based
Experimental: (§1) Pig eyes were obtained from a local slaughterhouse and transported to the laboratory in ice-cold Ringer solution. After removal of the anterior segment of the eye, the vitreous and neural retina was separated from the RPE and removed. The eyecup was washed twice with phosphate buffer saline (PBS), filled with trypsin (0.25% in PBS) and incubated at 37°C for 1.5 h. RPE cells were harvested by gently pipetting, centrifuged to remove trypsin and re-suspended in Dulbecco’s Modified Eagle Medium (DMEM) supplemented with 20% (v/v) foetal-calf serum (DMEM20%FCS) and 0.1% gentamycin. Cells were seeded into 60 mm diameter Petri dishes, cultured in an atmosphere of 5% CO2/95% air at 37°C, and supplied with fresh medium after 24 hours and 4 days in vitro. For experiments aimed at measuring mRNA or protein expression in RPE, cells were trypsinized after one week in culture and transferred to 24-well or 6-well plates at a density of 1.5 × 10^5 cells/cm^2 in DMEM2%FCS. Norbixin or agonists were added to the medium 24 h after seeding, and antagonists were added to the medium 24 h later. A2E treatment was performed during 19 h before cellular sample preparation. All the drugs used in these experiments were prepared as stock solutions in DMSO.
(§2) After one week in culture, cells were trypsinized and transferred to a 96-well plate at a density of 6 × 10^4 cells/cm^2 in DMEM2%FCS. The next day, cells were transfected using the Cignal Reporter Assay Kits for PPAR, RXR, AP-1 and NF-κB, according to the manufacturer’s specifications. To measure the specific activation of PPAR isoforms, cells were also co-transfected with PPAR-α, PPAR-β/δ or PPAR-γ expression vectors. Transfection was performed with Lipofectamine and Plus Reagent in serum-free medium. 3 h after the transfection, the medium was replaced and treatments with the molecules to assay were performed. Luciferase activity was measured the next day using the Dual-Luciferase Reporter Assay System. The measurements were performed with a luminometer (Infinite M1000 from Tecan, Mannedorf, Switzerland). Firefly: Renilla activity ratios were calculated for each condition and ratios from transcription factor-responsive reporter transfections were divided by ratios from negative control transfections to obtain relative luciferase unit, as described by the manufacturer. At least 3 independent transfections were performed in triplicate for each condition.

[2] = system: PPAR-β/δ; assay: Transactivation of over-expressed PPAR-β/δ, luciferase reporter in porcine RPE cells; assay type: cell-based, pig; conditions: for transactivation of over-expressed PPAR-β/δ by the compound alone: vs DMSO control, A2E 20 μM, NBX increasing concentrations
Experimental: Then the effects of A2E on the endogenous PPAR transactivation in porcine RPE cells were investigated by means of a luciferase assay. […] The level of transactivation of PPAR-α, -β/δ, or -γ isoforms by A2E was determined by co-transfection of porcine RPE cells with a plasmid expressing each of the full-length PPAR isoforms and a plasmid expressing luciferase under the control of the PPAR response element. […] All usual chemicals, primers, and HX531 were from Sigma (St. Louis, MO, USA). Reagents for cell culture, transfection and quantitative RT-PCR were from Thermo Fisher Scientific (Waltham, MA, USA). RNA extraction NucleoSpin® RNA kit was from Macherey Nagel (Düren, Germany). ECL prime and PVDF membrane were from Amersham GE Healthcare (Buckinghamshire, UK). Primary antibodies against the following proteins were used: GAPDH (Santa Cruz Biotechnology, Inc, Dallas, TX, USA); pAKT, AKT, pERK and ERK (Cell Signaling, Danvers, MA, USA). Secondary antibodies were from Jackson ImmunoResearch (Cambridgeshire, UK). […] Cignal Pathway Reporter Assay Kits were from QIAGEN (Frederick, MD, USA). The Dual-Luciferase Reporter Assay System was purchased from Promega (Madison, WI, USA). pcDNA 3.1 (+)-PPARα and pcDNA 3.1 (+)-PPARβ/δ (pig sequence) were purchased from Genscript (Piscataway, NJ, USA). pCMV6-XL4-PPARγ (human sequence) was purchased from Origene (Rockville, MD, USA).
as §2

[3] = system: RXR; assay: Endogenous RXR transactivation, luciferase reporter in porcine RPE cells; assay type: cell-based
Experimental: as §1, §2

[4] = system: NF-κB; assay: NF-κB transactivation, luciferase reporter in porcine RPE cells; assay type: cell-based; conditions: A2E 20 μM, T007907 10 μM
Experimental: as §1, §2

[5] = system: AP-1; assay: AP-1 transactivation, luciferase reporter in porcine RPE cells; assay type: cell-based
Experimental: as §1
as §2, with “Transfection was performed with Lipofectamine and Plus Reagent in serum-free medium. 3 h after the transfection, the medium was replaced and treatments with the molecules to assay were performed.” left out, “The measurements were performed with a luminometer (Infinite M1000 from Tecan, Mannedorf, Switzerland).” left out, “At least 3 independent transfections were performed in triplicate for each condition.” left out

[6] = system: IL-18; assay: IL-18 mRNA expression by quantitative RT-PCR in porcine RPE cells; assay type: cell-based
Experimental: as §1, with “All the drugs used in these experiments were prepared as stock solutions in DMSO.” left out
(§3) Total RNA was extracted using the NucleoSpin® RNA kit according to manufacturer’s instructions. […] The relative mRNA expression was calculated using the comparative threshold method (Ct-method) with GAPDH for normalization. […]

[7] = system: MMP9; assay: MMP9 mRNA expression by quantitative RT-PCR in porcine RPE cells; assay type: cell-based
Experimental: as §1, with “All the drugs used in these experiments were prepared as stock solutions in DMSO.” left out
as §3

[8] = system: AKT; assay: AKT phosphorylation by western blot in primary porcine RPE cells; assay type: cell-based
Experimental: as §1, with “Norbixin or agonists were added to the medium 24 h after seeding, and antagonists were added to the medium 24 h later. A2E treatment was performed during 19 h before cellular sample preparation. All the drugs used in these experiments were prepared as stock solutions in DMSO.” left out
RPE samples were lysed in 20 mM Tris-HCl, 150 mM NaCl, 1 mM EDTA, 1% NP-40, pH 7.5 buffer containing a cocktail of protease and phosphatase inhibitors. […] The signal was developed using enhanced chemiluminescence reagents (ECL) prime detection kit, quantified by densitometry using Bio1D (Vilber Lourmat, Germany) and normalized by GAPDH levels. […]

[9] = A2E 20 μM, NBX 20 μM, HX531 5 μM
[10] = dose-response, porcine RPE cells

| SMILES | inhibition of endogenous PPAR transactivation induced by A2E ([1]; A2E 20 μM, NBX 20 μM, HX531 5 μM (HX531 effect not significant)) [%] | effect of the compound alone on endogenous PPAR transactivation ([1]; NBX 20 μM, no A2E) | effect on over-expressed PPAR-β/δ transactivation induced by A2E ([2]; A2E 20 μM + NBX 20 μM) | inhibition of PPAR-β/δ transactivation induced by GW0742 ([2]; GW0742 at 1 nM, NBX 20 μM) | transactivation of over-expressed PPAR-β/δ by the compound alone [2] | inhibition of RXR transactivation induced by A2E [3, 9] [%] | inhibition of RXR transactivation induced by HX630 ([3]; HX630 5 μM, NBX 20 μM) | transactivation of RXRs by the compound alone ([3]; HX630 5 μM, NBX 20 μM, vs DMSO control) | inhibition of NF-κB transactivation induced by A2E ([4]; NBX 20 μM, HX531 5 μM) [%] | inhibition of AP-1 transactivation induced by A2E [5, 9] [%] | effect on IL-18 expression induced by A2E ([6]; NBX 20 μM + A2E 30 μM, PPAR antagonists) | effect on MMP9 mRNA expression in the absence or presence of A2E ([7]; NBX 20 μM, A2E 30 μM) | effect on the increase of AKT phosphorylation induced by A2E ([8]; NBX 20 μM + A2E 30 μM) | minimal required concentration to transactivate all PPARs (endogenous) [1, 10] [µM] | minimal concentration inducing transactivation of endogenous RXRs [3, 10] [µM] | effect of the compound alone on NF-κB transactivation ([4]; vs DMSO control) | effect of the compound alone on AP-1 transactivation ([5]; A2E 20 μM vs DMSO control) | effect of the compound alone on IL-18 mRNA expression ([6]; A2E 30 μM vs DMSO control) | effect of the compound alone on MMP9 mRNA expression ([7]; A2E 30 μM vs DMSO control) | effect of the compound alone on AKT phosphorylation ([8]; A2E 30 μM vs DMSO control) |
| --- | --- | --- | --- | --- | --- | --- | --- | --- | --- | --- | --- | --- | --- | --- | --- | --- | --- | --- | --- | --- |
| CC(/C=C/C=C(C)/C=C/C(=O)O)=C\C=C\C=C(C)\C=C\C=C(C)\C=C\C(=O)O (stereo in doubt) [norbixin, 9’-cis-norbixin] | 52 | did not inhibit | fully abolished | did not inhibit significantly | did not demonstrate any transactivation activity | 49 | did not inhibit | did not induce the transactivation | 73 | 82 | not inhibited | slightly, but significantly, increased | abrogated completely |  |  |  |  |  |  |  |
| CC(C=CC1=C(C)CCCC1(C)C)=CC=CC(C)=Cc1cc(C=CC=C(C)C=CC2=C(C)CCCC2(C)C)cc[n+]1CCO [A2E, N-retinylidene-N-retinylethanolamine] |  |  |  |  | induced the transactivation |  |  |  |  |  |  |  |  | 20 | 20 | induces the transactivation | induced transactivation of AP-1 | induced by A2E | reduced the expression | induced the phosphorylation |
